Target: T1, glucocerebrosidase (Gcase) (Homo sapiens, UniProt P04062)
T1 construct: micellar solution containing 10 nM GCase and 100 nM saposin C
T1 sequence (P04062 40-536): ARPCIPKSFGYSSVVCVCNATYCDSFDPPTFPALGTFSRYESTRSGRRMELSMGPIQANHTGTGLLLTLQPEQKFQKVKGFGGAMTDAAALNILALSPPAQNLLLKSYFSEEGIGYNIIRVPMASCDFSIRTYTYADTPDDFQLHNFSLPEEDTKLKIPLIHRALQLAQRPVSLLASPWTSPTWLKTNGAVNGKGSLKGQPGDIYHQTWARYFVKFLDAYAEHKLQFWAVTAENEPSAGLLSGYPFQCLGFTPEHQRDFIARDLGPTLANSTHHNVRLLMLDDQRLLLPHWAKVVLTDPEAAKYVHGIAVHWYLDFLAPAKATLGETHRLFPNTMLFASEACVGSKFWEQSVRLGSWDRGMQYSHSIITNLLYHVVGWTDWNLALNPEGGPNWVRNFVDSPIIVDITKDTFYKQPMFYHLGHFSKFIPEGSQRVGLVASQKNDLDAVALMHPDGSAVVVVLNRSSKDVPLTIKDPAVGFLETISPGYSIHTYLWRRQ
Assay: Glucocerebrosidase (Gcase) activation assay with 4-methylumbelliferyl-beta-D-glucopyranoside substrate, saposin C and phosphatidylserine/triton micelles, fluorescence readout
Type: biochemical
Outline: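 Test compounds are first screened at 1.0 and 0.1 μM final, then titrated in 8 points (3-fold from 5 μM) against human GCase with saposin C in phosphatidylserine/triton X-100 micelles at pH 4.7. Reactions run 15 min at room temperature, with fluorescence read at 365/440 nm.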

| SMILES | Percent Gcase Activation, 0.1 μM Test Compound (test compound at 0.1 μM) | Percent Gcase Activation, 1 μM Test Compound (test compound at 1.0 μM) | Percent Gcase Activation, 0.1 μM Test Compound (0.1 μM test compound, Table 3A) | Percent Gcase Activation, 1 μM Test Compound (1 μM test compound, Table 3A) | other results |
| --- | --- | --- | --- | --- | --- |
| Cc1cc(N2CCN(c3ccccc3)C2=O)nc2c(C(=O)N[C@H](C3CC3)C(F)(F)F)cnn12 [III-330] |  |  |  |  | Percent Gcase Activation, 0.1 μM Test Compound (0.1 μM test compound): ** (Gcase activation in the range of 10% up to 20%); Percent Gcase Activation, 1 μM Test Compound (1 μM test compound): ++ (Gcase activation in the range of 30% up to 60%) |
| Cc1cc(NC2CC2)nc2c(C(=O)NC(C3CC3)C(F)(F)F)cnn12 (centres unmarked) [III-44] |  |  | *** (greater than 20% Gcase activation) | +++ (Gcase activation greater than 60%) |  |
| Cc1cc(C)n2ncc(C(=O)NC(CC(C)C)C3CC3)c2n1 (centres unmarked) [III-5] |  |  | *** (greater than 20% Gcase activation) | +++ (Gcase activation greater than 60%) |  |
| Cc1cc(-c2ccc3ocnc3c2)nc2c(C(=O)NC(C3CC3)C(F)(F)F)cnn12 (centres unmarked) [III-83] |  |  | *** (greater than 20% Gcase activation) | +++ (Gcase activation greater than 60%) |  |
| Cc1cc(N2CC(C)(C)N(C)C2=O)nc2c(C(=O)N[C@H](C3CC3)C(F)(F)F)cnn12 [III-357] |  |  |  |  | Percent Gcase Activation, 0.1 μM Test Compound (0.1 μM test compound): ** (Gcase activation in the range of 10% up to 20%); Percent Gcase Activation, 1 μM Test Compound (1 μM test compound): +++ (Gcase activation greater than 60%) |
| Cc1cc(-c2ccccn2)nc2c(C(=O)NC(C)(C)C3CC3)cnn12 [III-16] |  |  | ** (Gcase activation in the range of 10% up to 20%) | +++ (Gcase activation greater than 60%) |  |
| Cc1cc(-c2cccc3ncoc23)nc2c(C(=O)NC(C)(C)C(F)(F)F)cnn12 [III-219] | ** (Gcase activation in the range of 10% up to 20%) | ++ (Gcase activation in the range of 30% up to 60%) |  |  |  |
| Cc1cc(-c2cccc(Cl)c2)nc2c(C(=O)NC(C)(C)C(F)(F)F)cnn12 [III-406] |  |  |  |  | Percent Gcase Activation, 0.1 μM Test Compound (0.1 μM test compound): *** (greater than 20% Gcase activation); Percent Gcase Activation, 1 μM Test Compound (1 μM test compound): +++ (Gcase activation greater than 60%) |
| Cc1cc(-c2cccc(Cl)n2)nc2c(C(=O)N[C@H](C)C(F)(F)F)cnn12 [III-235] | ** (Gcase activation in the range of 10% up to 20%) | +++ (Gcase activation greater than 60%) |  |  |  |
| Cc1cc(-c2cccnc2)n2ncc(C(=O)NC(C)(C)C3CC3)c2n1 [III-19] |  |  | * (less than 10% Gcase activation) | + (less than 30% Gcase activation) |  |

The next lines start with results.

| Percent Gcase Activation, 0.1 μM Test Compound (test compound at 0.1 μM) | Percent Gcase Activation, 1 μM Test Compound (test compound at 1.0 μM) | Percent Gcase Activation, 0.1 μM Test Compound (0.1 μM test compound, Table 3A) | Percent Gcase Activation, 1 μM Test Compound (1 μM test compound, Table 3A) | SMILES | other results |
| --- | --- | --- | --- | --- | --- |
| *** (greater than 20% Gcase activation) | +++ (Gcase activation greater than 60%) |  |  | Cc1cc(-c2ccc(C#N)o2)nc2c(C(=O)NC(C3CC3)C(F)(F)F)cnn12 (centres unmarked) [III-185] |  |
| *** (greater than 20% Gcase activation) | +++ (Gcase activation greater than 60%) |  |  | Cc1cc(-c2cnccc2Cl)nc2c(C(=O)NC(C3CC3)C(F)(F)F)cnn12 (centres unmarked) [III-122] |  |
| * (less than 10% Gcase activation) | +++ (Gcase activation greater than 60%) |  |  | CCc1cc(N2CCOCC2)nc2c(C(=O)NC(C3CC3)C(F)(F)F)cnn12 (centres unmarked) [III-238] |  |
| *** (greater than 20% Gcase activation) | +++ (Gcase activation greater than 60%) |  |  | Cc1cc(-c2ccccc2)nc2c(C(=O)N[C@@H](C)C3CC3)cnn12 [III-136] |  |
| *** (greater than 20% Gcase activation) | +++ (Gcase activation greater than 60%) |  |  | Cc1cc(-c2ccc(Cl)nc2)nc2c(C(=O)NC(C3CC3)C(F)(F)F)cnn12 (centres unmarked) [III-116] |  |
| *** (greater than 20% Gcase activation) | +++ (Gcase activation greater than 60%) |  |  | Cc1oc(C#N)cc1-c1cc(C)n2ncc(C(=O)N[C@H](C3CC3)C(F)(F)F)c2n1 [III-243] |  |

From US10934298B2, “Substituted pyrazolo[1,5-a]pyrimidines for the treatment of medical disorders” (BIAL—BioTech Investments, Inc., priority 2016, dated 2021)
